Measurements: patent US12448369B2 (Edgewise Therapeutics, Inc., priority 2023, dated 2025)

What was measured:
[1] = system: Rabbit Psoas myofibrils (skeletal myosin ATPase); assay: Myofibril ATPase assay, rabbit psoas (skeletal) myofibrils; assay type: biochemical; details: rabbit psoas myofibrils
Procedure, shortened: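 Rabbit psoas skeletal myofibrils in PIPES/CaCl2/EGTA pCa buffer, pH 7.0. ATPase rate followed by PK-LDH-coupled NADH loss at 340 nm, read every 1.5–2 min for 75 min. Slopes normalized to vehicle (100%) and fitted to a 4-parameter logistic; values are Y75 (25% inhibition) or Y125 (25% activation) concentrations.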

[2] = system: Porcine atria myofibrils (atrial myosin ATPase); assay: Myofibril ATPase assay, porcine atria myofibrils; assay type: biochemical; details: porcine atria myofibrils
Procedure, shortened: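 Coupled PK-LDH reaction links ADP from myosin ATPase to NADH loss, read at 340 nm every 1.5-2 min for 75 min. Slopes (mAU/min) normalized to vehicle-only wells (100%) and fit to a 4-parameter logistic; Y75 is the concentration cutting activity by 25%, Y125 is reported for activators.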

[3] = molecular target: T1, Porcine ventricle myofibrils (ventricular myosin ATPase) (Sus scrofa, UniProt P79293); assay: Myofibril ATPase assay, porcine ventricle myofibrils; assay type: biochemical, porcine (Yucatan minipigs); details: porcine ventricle myofibrils
T1 construct: Myofibrils from porcine cardiac muscle was isolated from the left ventricle of Yucatan minipigs; tissue Exemplar Genetics; host or cells: left ventricle of Yucatan minipigs, myofibrils prepared in house
T1 sequence (P79293 whole entry): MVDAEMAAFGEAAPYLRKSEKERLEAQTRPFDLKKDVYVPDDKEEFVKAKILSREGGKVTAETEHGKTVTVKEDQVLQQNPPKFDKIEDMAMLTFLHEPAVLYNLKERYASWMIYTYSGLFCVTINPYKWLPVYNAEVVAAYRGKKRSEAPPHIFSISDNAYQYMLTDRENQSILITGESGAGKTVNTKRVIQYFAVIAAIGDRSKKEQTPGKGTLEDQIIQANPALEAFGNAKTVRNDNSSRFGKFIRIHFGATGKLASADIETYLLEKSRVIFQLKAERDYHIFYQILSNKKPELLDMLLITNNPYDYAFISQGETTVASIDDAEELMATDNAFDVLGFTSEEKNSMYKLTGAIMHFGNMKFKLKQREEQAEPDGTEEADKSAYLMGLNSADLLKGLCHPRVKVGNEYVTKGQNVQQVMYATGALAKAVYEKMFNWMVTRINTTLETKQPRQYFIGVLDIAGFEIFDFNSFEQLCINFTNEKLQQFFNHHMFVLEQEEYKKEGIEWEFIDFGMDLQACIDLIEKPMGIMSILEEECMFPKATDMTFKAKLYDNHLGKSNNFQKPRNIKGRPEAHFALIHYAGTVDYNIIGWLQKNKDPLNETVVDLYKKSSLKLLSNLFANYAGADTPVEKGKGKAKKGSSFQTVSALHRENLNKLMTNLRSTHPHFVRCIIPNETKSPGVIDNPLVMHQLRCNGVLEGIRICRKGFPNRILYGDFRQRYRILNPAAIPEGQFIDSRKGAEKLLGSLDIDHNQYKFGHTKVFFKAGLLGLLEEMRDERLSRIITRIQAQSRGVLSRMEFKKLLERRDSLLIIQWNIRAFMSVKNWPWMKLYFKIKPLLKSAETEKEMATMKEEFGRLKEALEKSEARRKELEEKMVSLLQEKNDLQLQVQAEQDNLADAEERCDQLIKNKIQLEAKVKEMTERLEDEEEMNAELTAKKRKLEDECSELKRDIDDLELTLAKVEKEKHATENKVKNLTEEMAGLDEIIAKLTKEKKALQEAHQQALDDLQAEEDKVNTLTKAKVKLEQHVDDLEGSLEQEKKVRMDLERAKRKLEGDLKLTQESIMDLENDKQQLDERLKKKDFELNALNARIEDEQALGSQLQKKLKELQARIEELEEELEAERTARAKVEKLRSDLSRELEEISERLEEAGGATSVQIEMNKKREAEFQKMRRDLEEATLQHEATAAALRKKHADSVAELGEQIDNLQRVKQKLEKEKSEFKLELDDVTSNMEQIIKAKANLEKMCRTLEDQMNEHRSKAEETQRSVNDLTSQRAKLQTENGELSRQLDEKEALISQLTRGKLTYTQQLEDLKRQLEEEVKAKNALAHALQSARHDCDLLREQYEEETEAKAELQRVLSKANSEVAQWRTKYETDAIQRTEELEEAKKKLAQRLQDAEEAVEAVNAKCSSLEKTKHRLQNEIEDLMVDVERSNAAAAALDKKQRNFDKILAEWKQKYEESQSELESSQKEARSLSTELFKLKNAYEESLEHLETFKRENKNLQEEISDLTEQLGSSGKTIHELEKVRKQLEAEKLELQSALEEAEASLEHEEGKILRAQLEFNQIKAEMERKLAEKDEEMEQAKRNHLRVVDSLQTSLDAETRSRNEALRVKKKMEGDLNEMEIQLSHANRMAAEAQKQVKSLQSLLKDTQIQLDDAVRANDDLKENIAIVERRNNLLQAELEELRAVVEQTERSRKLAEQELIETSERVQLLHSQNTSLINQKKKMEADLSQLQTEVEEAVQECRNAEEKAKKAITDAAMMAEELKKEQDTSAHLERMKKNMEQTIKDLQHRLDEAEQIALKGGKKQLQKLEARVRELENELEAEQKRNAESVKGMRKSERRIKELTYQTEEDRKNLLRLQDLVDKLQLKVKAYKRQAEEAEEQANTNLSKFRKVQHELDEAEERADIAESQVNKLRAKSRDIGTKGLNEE
Procedure, shortened: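 ATPase activity of porcine left-ventricle myofibrils (Yucatan minipig) was followed through PK-LDH coupling as NADH loss at 340 nm, read every 1.5-2 min for 75 min. Slopes were normalised to vehicle wells and fitted to a 4-parameter logistic model. Values are Y75, the concentration giving a 25% drop in activity, or Y125 for activators.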

[4] = ‡ Y125 value, not a Y75 value (125% activity relative to no compound)
[5] = Y75 value (75% activity relative to no compound)

COc1ccc2[nH]c(=O)c(CC(=O)N[C@H](C)c3ncc(F)cc3F)cc2c1C (single isomer, unassigned) [compound 79]
Skeletal EC25 ([1]; Y75 value (no ‡ mark)): 100.00 µM | Atrial EC25 ([2]; Y75 value (no ‡ mark)): 100.00 µM | Ventricular EC25 ([3]; Y75 value (no ‡ mark)): 100.00 µM

Cc1c(CC(=O)N[C@H](C)c2ncc(C#N)cc2F)c(=O)[nH]c2cc(F)ccc12 [compound 1078]
Skeletal EC25 ([1]; Y75 value (no ‡ mark)): 2.27 µM | Atrial EC25 ([2]; Y75 value (no ‡ mark)): 2.57 µM | Ventricular EC25 ([3]; Y75 value (no ‡ mark)): 2.05 µM

Cc1c(CC(=O)N[C@@H](C)c2ncc(C#N)cc2F)c(=O)[nH]c2ccc(F)c(C(F)(F)F)c12 [compound 22]
Skeletal EC25 ([1]; Y75 value (no ‡ mark)): 0.00 µM | Atrial EC25 ([2]; Y75 value (no ‡ mark)): 0.02 µM | Ventricular EC25 ([3]; Y75 value (no ‡ mark)): 0.02 µM

Cc1c(C(F)(F)C(=O)N[C@@H](C)c2nccc(C#N)n2)c(=O)[nH]c2ccc(F)cc12 (single isomer, unassigned) [compound 2528]
Skeletal EC25 [1, 4]: 93.23‡ μM | Atrial EC25 ([2]; Y75 value (no ‡ mark)): 4.45 µM | Ventricular EC25 ([3]; Y75 value (no ‡ mark)): 100.00 µM

COc1ccc([C@H](C)NC(=O)Cc2c(C)c3c(C)nccc3[nH]c2=O)cc1 (single isomer, unassigned) [compound 287]
Skeletal EC25 ([1]; Y75 value): 100.00 µM | Atrial EC25 [2, 5]: 100.00 µM | Ventricular EC25 ([3]; Y75 value): 100.00 µM

CCOc1nccc2[nH]c(=O)c([C@H](C)C(=O)N[C@@H](C)c3ccc(F)cc3F)c(C(F)(F)F)c12 (single isomer, unassigned) [compound 415]
Skeletal EC25 ([1]; Y75 value): 0.13 µM | Atrial EC25 [2, 5]: 2.22 µM | Ventricular EC25 ([3]; Y75 value): 12.58 µM

C[C@H](NC(=O)C(F)(F)c1cc2cc(F)ccc2[nH]c1=O)c1ccc(F)cc1F [compound 119]
Skeletal EC25 ([1]; Y75 value (no ‡ mark)): 0.11 µM | Atrial EC25 ([2]; Y75 value (no ‡ mark)): 0.26 µM | Ventricular EC25 ([3]; Y75 value (no ‡ mark)): 1.96 µM

C[C@@H](NC(=O)Cc1c(C2CC2)c2cc(F)ccc2[nH]c1=O)c1ncc(C#N)cc1F [compound 39]
Skeletal EC25 ([1]; Y75 value (no ‡ mark)): 100.00 µM | Atrial EC25 ([2]; Y75 value (no ‡ mark)): 100.00 µM | Ventricular EC25 ([3]; Y75 value (no ‡ mark)): 100.00 µM

Cc1c(CC(=O)N[C@H](CO)c2ncc(F)cc2F)c(=O)[nH]c2ccnc(C(F)(F)F)c12 [compound 263]
Skeletal EC25 ([1]; Y75 value): 100.00 µM | Atrial EC25 [2, 5]: 100.00 µM | Ventricular EC25 ([3]; Y75 value): 100.00 µM

Cc1c(CC(=O)N[C@@H](C)c2cnc(C#N)nc2)c(=O)[nH]c2ccc(F)cc12 [compound 1101]
Skeletal EC25 ([1]; Y75 value (no ‡ mark)): 0.06 µM | Atrial EC25 ([2]; Y75 value (no ‡ mark)): 0.17 µM | Ventricular EC25 ([3]; Y75 value (no ‡ mark)): 0.31 µM

Cc1c(CC(=O)N[C@@H](C)c2cnc(C#N)nc2)c(=O)[nH]c2ccc(C(F)(F)F)nc12 [compound 458]
Skeletal EC25 ([1]; Y75 value): 10.51 µM | Atrial EC25 [2, 5]: 0.79 µM | Ventricular EC25 ([3]; Y75 value): 100.00 µM

C[C@@H](NC(=O)C1(c2cc3cc(F)ccc3[nH]c2=O)CC1)c1nccc(C#N)n1 (single isomer, unassigned) [compound 2507]
Skeletal EC25 ([1]; Y75 value (no ‡ mark)): 19.51 µM | Atrial EC25 ([2]; Y75 value (no ‡ mark)): 4.10 µM | Ventricular EC25 ([3]; Y75 value (no ‡ mark)): 100.00 µM

Cc1c(CC(=O)N[C@@H]2COc3cc(C#N)cnc32)c(=O)[nH]c2ccc(F)cc12 [compound 1062]
Skeletal EC25 ([1]; Y75 value (no ‡ mark)): 9.26 µM | Atrial EC25 ([2]; Y75 value (no ‡ mark)): 3.49 µM | Ventricular EC25 ([3]; Y75 value (no ‡ mark)): 6.56 µM

Cc1c(CC(=O)N[C@H](C)c2ncc(C#N)cc2F)c(=O)[nH]c2ccc(OC(F)(F)F)nc12 [compound 455]
Skeletal EC25 ([1]; Y75 value): 5.74 µM | Atrial EC25 [2, 5]: 7.11 µM | Ventricular EC25 ([3]; Y75 value): 100.00 µM

C[C@@H](NC(=O)[C@H](C)c1cc2c(F)c(F)ccc2[nH]c1=O)c1ncc(C#N)cc1F (single isomer, unassigned) [compound 2598]
Skeletal EC25 [1, 4]: 100.00‡ μM | Atrial EC25 ([2]; Y75 value (no ‡ mark)): 0.60 µM | Ventricular EC25 ([3]; Y75 value (no ‡ mark)): 1.10 µM

Cc1c([C@H](C)C(=O)N[C@@H](C)c2ccc(F)cc2F)c(=O)[nH]c2ccnc(F)c12 (single isomer, unassigned) [compound 375]
Skeletal EC25 ([1]; Y75 value): 0.17 µM | Atrial EC25 [2, 5]: 0.27 µM | Ventricular EC25 ([3]; Y75 value): 4.58 µM

Cc1nc(C#N)cnc1[C@@H](C)NC(=O)C(F)(F)c1c(C)c2c(C)nccc2[nH]c1=O (single isomer, unassigned) [compound 3503]
Skeletal EC25 ([1]; Y75 value): 0.89 µM | Atrial EC25 [2, 5]: 3.50 µM | Ventricular EC25 ([3]; Y75 value): 5.70 µM

COc1ccccc1[C@@H](C)NC(=O)Cc1c(C)c2c(C)nccc2[nH]c1=O (single isomer, unassigned) [compound 318]
Skeletal EC25 ([1]; Y75 value): 27.68 µM | Atrial EC25 [2, 5]: 100.00 µM | Ventricular EC25 ([3]; Y75 value): 100.00 µM

Cc1c(CC(=O)N[C@H](C)c2ncc(F)cc2F)c(=O)[nH]c2ccc(C#N)nc12 (single isomer, unassigned) [compound 249]
Skeletal EC25 ([1]; Y75 value): 100.00 µM | Atrial EC25 [2, 5]: 100.00 µM | Ventricular EC25 ([3]; Y75 value): 100.00 µM

Cc1nccc2[nH]c(=O)c(CC(=O)N[C@H](C)c3cccc(O)n3)c(C)c12 (single isomer, unassigned) [compound 297]
Skeletal EC25 ([1]; Y75 value): 100.00 µM | Atrial EC25 [2, 5]: 100.00 µM | Ventricular EC25 ([3]; Y75 value): 100.00 µM

C[C@@H](NC(=O)Cc1cc2cc(F)c(F)cc2[nH]c1=O)c1ncc(C#N)cc1F (single isomer, unassigned) [compound 3]
Skeletal EC25 ([1]; Y75 value (no ‡ mark)): 2.33 µM | Atrial EC25 ([2]; Y75 value (no ‡ mark)): 3.40 µM | Ventricular EC25 ([3]; Y75 value (no ‡ mark)): 0.31 µM

C[C@@H](NC(=O)C1(c2cc3c(F)c(F)ccc3[nH]c2=O)CC1)c1ccc(C#N)cn1 (single isomer, unassigned) [compound 4809]
Skeletal EC25 ([1]; Y75 value (no ‡ mark)): 1.34 µM | Atrial EC25 ([2]; Y75 value (no ‡ mark)): 3.07 µM | Ventricular EC25 ([3]; Y75 value (no ‡ mark)): 31.20 µM

C[C@@H](NC(=O)Cc1c(C(F)(F)F)c2c(C3CC3)nccc2[nH]c1=O)c1ccc(C#N)cn1 (single isomer, unassigned) [compound 3005]
Skeletal EC25 ([1]; Y75 value): 100.00 µM | Atrial EC25 [2, 5]: 100.00 µM | Ventricular EC25 ([3]; Y75 value): 100.00 µM

C[C@H](NC(=O)[C@@H](C)c1cc2c(F)c(F)ccc2[nH]c1=O)c1ccc(F)cc1F (single isomer, unassigned) [compound 110]
Skeletal EC25 ([1]; Y75 value (no ‡ mark)): 100.00 µM | Atrial EC25 ([2]; Y75 value (no ‡ mark)): 0.52 µM | Ventricular EC25 ([3]; Y75 value (no ‡ mark)): 42.60 µM

Cc1cc(C#N)nnc1[C@@H](C)NC(=O)Cc1c(C)c2cc(F)ccc2[nH]c1=O [compound 1058]
Skeletal EC25 ([1]; Y75 value (no ‡ mark)): 29.21 µM | Atrial EC25 ([2]; Y75 value (no ‡ mark)): 1.92 µM | Ventricular EC25 ([3]; Y75 value (no ‡ mark)): 6.86 µM

Cc1c(CC(=O)N[C@@H](C)c2ncc(C#N)cn2)c(=O)[nH]c2ccc(C#N)cc12 (single isomer, unassigned) [compound 2028]
Skeletal EC25 [1, 4]: 73.42‡ μM | Atrial EC25 ([2]; Y75 value (no ‡ mark)): 100.00 µM | Ventricular EC25 [3, 4]: 100.00‡ μM

C[C@H](NC(=O)Cc1c(C2CC2)c2c(F)cccc2[nH]c1=O)c1ncc(C#N)cc1F [compound 1144]
Skeletal EC25 ([1]; Y75 value (no ‡ mark)): 0.09 µM | Atrial EC25 ([2]; Y75 value (no ‡ mark)): 0.29 µM | Ventricular EC25 ([3]; Y75 value (no ‡ mark)): 0.84 µM

Cc1c(C(F)(F)C(=O)N[C@@H](CO)c2ncc(C#N)cc2F)c(=O)[nH]c2ccnc(C#N)c12 (single isomer, unassigned) [compound 3504]
Skeletal EC25 ([1]; Y75 value): 1.04 µM | Atrial EC25 [2, 5]: 0.77 µM | Ventricular EC25 ([3]; Y75 value): 4.90 µM

C[C@H](NC(=O)Cc1cc2c(C3CC3)nccc2[nH]c1=O)c1ccc(F)cc1F [compound 432]
Skeletal EC25 ([1]; Y75 value): 0.47 µM | Atrial EC25 [2, 5]: 16.07 µM | Ventricular EC25 ([3]; Y75 value): 80.53 µM

Cc1c(C2(C(=O)N[C@H](C)c3nccc(C#N)n3)CC2)c(=O)[nH]c2ccc(F)c(F)c12 (single isomer, unassigned) [compound 2509]
Skeletal EC25 [1, 4]: 94.41‡ μM | Atrial EC25 [2, 4]: 100.00‡ μM | Ventricular EC25 [3, 4]: 77.92‡ μM

Cc1c(CC(=O)N[C@H](c2ccc(F)cc2F)C(C)(C)O)c(=O)[nH]c2ccnc(C#N)c12 (single isomer, unassigned) [compound 280]
Skeletal EC25 ([1]; Y75 value): 24.76 µM | Atrial EC25 [2, 5]: 100.00 µM | Ventricular EC25 ([3]; Y75 value): 100.00 µM
